Here are results for 8 compounds from patent US9309242B2, “Substituted pyrido[2,3-b]pyrazines as FGFR kinase inhibitors” (priority 2011, dated 2016).

Each structure is given as a SMILES string. Bounds are passed on as bounds.

For one test, the target named is FGFR1 (h) (Homo sapiens, UniProt P11362). Kind of test: FGFR1 (enzymatic assay), TR-FRET. The format is biochemical. The conditions noted are these: read-out: FGFR 1 pIC50 (converted).
Another test deals with FGFR2 (h) (Homo sapiens, UniProt P21802). The experiment in a line: FGFR2 (enzymatic assay), TR-FRET. The format is biochemical. The conditions noted are these: enzymatic assay; read-out: FGFR 2 pIC50 (converted). Summed up: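 At low ATP (0.4 μM), enzyme activity of human FGFR2 (150 ng/ml) toward biotinylated Flt3 substrate (500 nM) was followed with test compound present. Reactions ran in 50 mM HEPES pH 7.5, 6 mM MnCl2, 1 mM DTT, 0.1 mM Na3VO4, 0.01% Triton-X-100, 1% DMSO.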

The next test has as its target FGFR3 (h) (Homo sapiens, UniProt P22607). The experiment in a line: FGFR3 (enzymatic assay), TR-FRET. The format is biochemical. The conditions noted are these: read-out: FGFR 3 pIC50 (converted). The source says: Time-Resolved Fluorescence Resonance Energy Transfer (TR-FRET) signal (ex340 nm.
On the technique in general: Time-resolved FRET reads energy transfer from a long-lived donor to a nearby acceptor.

The target of test [1] is T1, Ba/F3-FGFR1-transfected cells (Homo sapiens, UniProt P11362).
T1 construct: BAF3-FGFR1 (MIN IL3) pIC50; other: minus IL3
T1 sequence (P11362 whole entry, change not shown): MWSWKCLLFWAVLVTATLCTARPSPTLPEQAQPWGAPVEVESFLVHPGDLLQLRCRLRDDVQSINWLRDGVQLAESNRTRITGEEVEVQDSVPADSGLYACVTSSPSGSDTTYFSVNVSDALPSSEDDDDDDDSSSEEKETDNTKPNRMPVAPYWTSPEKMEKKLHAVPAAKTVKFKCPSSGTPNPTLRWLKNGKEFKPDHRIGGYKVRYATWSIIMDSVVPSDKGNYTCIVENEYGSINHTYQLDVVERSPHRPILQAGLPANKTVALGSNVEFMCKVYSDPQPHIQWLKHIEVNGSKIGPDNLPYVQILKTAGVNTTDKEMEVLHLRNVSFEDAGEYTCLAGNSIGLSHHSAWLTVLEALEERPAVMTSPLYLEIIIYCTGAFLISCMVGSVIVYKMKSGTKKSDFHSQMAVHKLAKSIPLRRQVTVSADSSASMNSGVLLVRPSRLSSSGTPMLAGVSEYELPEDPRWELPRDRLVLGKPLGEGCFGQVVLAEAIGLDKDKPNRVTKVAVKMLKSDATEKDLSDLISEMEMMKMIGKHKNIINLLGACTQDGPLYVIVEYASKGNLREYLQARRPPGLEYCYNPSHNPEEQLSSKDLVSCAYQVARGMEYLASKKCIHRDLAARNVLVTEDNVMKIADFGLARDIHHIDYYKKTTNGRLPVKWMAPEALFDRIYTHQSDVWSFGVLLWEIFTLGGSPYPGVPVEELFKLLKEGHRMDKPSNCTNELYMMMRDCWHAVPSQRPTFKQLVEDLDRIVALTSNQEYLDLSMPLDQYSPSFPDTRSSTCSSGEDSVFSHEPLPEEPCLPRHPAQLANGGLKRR
Kind of test: Ba/F3-FGFR1 (minus IL3) cellular proliferation assay, Alamar Blue. The format is cell-based. Summed up: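 Viability of transfected Ba/F3-FGFR1 cells (20000 per well, RPMI-1640 with 10% FBS and 2 mM L-glutamine) was scored by resazurin-based Alamar Blue reduction over 4 h, after 24 h treatment with compound at 37 °C under 5% CO2.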

Test [2] concerns Ba/F3-FGFR1-transfected cells. Kind of test: Ba/F3-FGFR1 (plus IL3) cellular proliferation assay, counterscreen with 10 ng/ml murine IL3. The conditions noted are these: plus IL3 (10 ng/ml murine IL3, counterscreen); read-out: BAF3-FGFR1 (PLUS IL3) pIC50 (converted). The format is cell-based. The method, boiled down: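 Proliferation read-out: resazurin-based Alamar Blue fluorescence (540/590 nm) after 4 h, following 24 h compound treatment of 20000 Ba/F3-FGFR1 cells per well in 10% FBS RPMI at 37° C. IL3 counterscreen used the same protocol plus 10 ng/ml murine IL3.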
In general terms: A counterscreen serves to expose hits that act by an unwanted route or on another target.

The target of test [3] is T2, Ba/F3-FGFR3-transfected cells (Homo sapiens, UniProt P22607).
T2 construct: BAF3-FGFR3 (MIN IL3) pIC50; other: minus IL3
T2 sequence (P22607 whole entry, change not shown): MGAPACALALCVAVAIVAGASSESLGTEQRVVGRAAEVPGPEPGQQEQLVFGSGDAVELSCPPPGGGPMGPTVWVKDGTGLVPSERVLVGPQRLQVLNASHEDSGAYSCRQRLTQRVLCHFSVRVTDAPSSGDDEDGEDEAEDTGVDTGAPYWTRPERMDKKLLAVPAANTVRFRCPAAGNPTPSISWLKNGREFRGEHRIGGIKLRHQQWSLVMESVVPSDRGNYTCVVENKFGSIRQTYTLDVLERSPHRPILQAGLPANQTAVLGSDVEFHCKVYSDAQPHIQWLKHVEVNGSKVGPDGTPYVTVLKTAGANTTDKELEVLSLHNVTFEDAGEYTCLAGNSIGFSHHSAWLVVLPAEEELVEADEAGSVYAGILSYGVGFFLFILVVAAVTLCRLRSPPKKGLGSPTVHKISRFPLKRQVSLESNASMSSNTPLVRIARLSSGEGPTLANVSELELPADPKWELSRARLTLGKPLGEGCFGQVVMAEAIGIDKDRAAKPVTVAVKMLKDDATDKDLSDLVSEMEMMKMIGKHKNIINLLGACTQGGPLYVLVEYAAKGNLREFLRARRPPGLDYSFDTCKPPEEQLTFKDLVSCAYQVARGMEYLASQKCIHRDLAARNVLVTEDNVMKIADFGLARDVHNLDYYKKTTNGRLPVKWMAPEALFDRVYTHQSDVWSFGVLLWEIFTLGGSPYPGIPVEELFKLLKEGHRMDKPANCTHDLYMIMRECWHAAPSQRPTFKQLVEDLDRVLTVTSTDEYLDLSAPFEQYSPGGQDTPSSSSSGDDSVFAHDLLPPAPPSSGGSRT
Kind of test: Ba/F3-FGFR3 (minus IL3) cellular proliferation assay, Alamar Blue. The format is cell-based. The method, boiled down:
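With or without 10 ng/ml murine IL3, FGFR3-dependent Ba/F3 cells were treated 24 h with compound, then viability was gauged by Alamar Blue fluorescence after 4 h (ex 540/em 590 nm).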
For orientation: The colour change of resazurin is a common sign of viable cells or microbes.

The target of test [4] is T3, Ba/F3-KDR-transfected cells (Homo sapiens, UniProt P35968).
T3 construct: BAF3-KDR (MIN IL3) pIC50; other: minus IL3
T3 sequence (P35968 whole entry, change not shown): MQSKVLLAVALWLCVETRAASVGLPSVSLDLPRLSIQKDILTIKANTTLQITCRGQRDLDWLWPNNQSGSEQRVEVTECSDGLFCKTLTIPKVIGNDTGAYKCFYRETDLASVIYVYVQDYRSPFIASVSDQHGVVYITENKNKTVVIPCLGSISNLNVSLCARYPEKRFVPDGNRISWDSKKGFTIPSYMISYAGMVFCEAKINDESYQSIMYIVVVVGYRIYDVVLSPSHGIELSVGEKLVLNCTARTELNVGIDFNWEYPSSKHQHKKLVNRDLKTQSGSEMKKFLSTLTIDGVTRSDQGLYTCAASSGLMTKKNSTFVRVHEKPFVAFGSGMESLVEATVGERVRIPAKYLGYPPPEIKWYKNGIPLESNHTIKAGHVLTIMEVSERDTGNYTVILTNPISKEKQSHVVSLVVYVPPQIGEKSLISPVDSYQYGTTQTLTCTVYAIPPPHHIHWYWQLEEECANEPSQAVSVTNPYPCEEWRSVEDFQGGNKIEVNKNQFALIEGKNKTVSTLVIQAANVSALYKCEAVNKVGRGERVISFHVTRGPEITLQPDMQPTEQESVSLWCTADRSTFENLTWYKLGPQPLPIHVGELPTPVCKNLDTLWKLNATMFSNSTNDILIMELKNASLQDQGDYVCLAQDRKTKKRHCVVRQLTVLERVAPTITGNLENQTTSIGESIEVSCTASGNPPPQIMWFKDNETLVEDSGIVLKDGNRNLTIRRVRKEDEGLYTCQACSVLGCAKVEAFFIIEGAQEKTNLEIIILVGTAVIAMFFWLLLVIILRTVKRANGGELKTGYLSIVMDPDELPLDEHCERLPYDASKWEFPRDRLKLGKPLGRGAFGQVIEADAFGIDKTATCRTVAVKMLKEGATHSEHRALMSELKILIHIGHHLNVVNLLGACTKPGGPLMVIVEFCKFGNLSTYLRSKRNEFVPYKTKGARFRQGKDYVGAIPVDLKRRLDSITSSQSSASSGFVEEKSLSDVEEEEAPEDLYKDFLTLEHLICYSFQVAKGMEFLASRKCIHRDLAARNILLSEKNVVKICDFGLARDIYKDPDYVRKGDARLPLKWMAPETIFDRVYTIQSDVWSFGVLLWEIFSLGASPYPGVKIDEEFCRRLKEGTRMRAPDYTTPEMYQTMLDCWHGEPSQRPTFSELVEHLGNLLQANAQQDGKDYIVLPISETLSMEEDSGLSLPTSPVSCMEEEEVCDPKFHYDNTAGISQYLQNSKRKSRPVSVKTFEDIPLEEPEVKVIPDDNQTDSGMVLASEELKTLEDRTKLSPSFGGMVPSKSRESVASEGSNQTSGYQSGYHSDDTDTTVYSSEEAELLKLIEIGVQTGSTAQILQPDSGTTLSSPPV
Kind of test: Ba/F3-KDR (minus IL3) cellular proliferation assay, Alamar Blue. The format is cell-based. The method, boiled down:
(§1)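 Proliferation read-out by Alamar Blue fluorescence (ex. 540 nm, em. 590 nm) after 4 hours, following 24 hours of compound treatment at 37° C of 20000 Ba/F3-KDR cells per well in RPMI-1640/10% FBS. Same protocol with 10 ng/ml murine IL3 serves as counterscreen.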

Test [5] concerns Ba/F3-KDR-transfected cells. The experiment in a line: Ba/F3-KDR (plus IL3) cellular proliferation assay, counterscreen with 10 ng/ml murine IL3. The format is cell-based. As to conditions: plus IL3 (10 ng/ml murine IL3, counterscreen); read-out: BAF3-KDR (PLUS IL3) pIC50 (converted). The method, boiled down:
as §1

The target of test [6] is Ba/F3-FGFR4-transfected cells (Homo sapiens, UniProt P22455). Kind of test: Ba/F3-FGFR4 cellular proliferation assay, Alamar Blue. The format is cell-based. Summed up: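 Proliferation is measured by resazurin reduction: after 24 h compound treatment at 37 °C in RPMI-1640/10% FBS, cells get Alamar Blue for 4 h before RFU read (540/590 nm). Each well holds 20000 Ba/F3-FGFR4-transfected cells.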
Chain of Ba/F3-FGFR4-transfected cells (P22455 whole entry, change not shown): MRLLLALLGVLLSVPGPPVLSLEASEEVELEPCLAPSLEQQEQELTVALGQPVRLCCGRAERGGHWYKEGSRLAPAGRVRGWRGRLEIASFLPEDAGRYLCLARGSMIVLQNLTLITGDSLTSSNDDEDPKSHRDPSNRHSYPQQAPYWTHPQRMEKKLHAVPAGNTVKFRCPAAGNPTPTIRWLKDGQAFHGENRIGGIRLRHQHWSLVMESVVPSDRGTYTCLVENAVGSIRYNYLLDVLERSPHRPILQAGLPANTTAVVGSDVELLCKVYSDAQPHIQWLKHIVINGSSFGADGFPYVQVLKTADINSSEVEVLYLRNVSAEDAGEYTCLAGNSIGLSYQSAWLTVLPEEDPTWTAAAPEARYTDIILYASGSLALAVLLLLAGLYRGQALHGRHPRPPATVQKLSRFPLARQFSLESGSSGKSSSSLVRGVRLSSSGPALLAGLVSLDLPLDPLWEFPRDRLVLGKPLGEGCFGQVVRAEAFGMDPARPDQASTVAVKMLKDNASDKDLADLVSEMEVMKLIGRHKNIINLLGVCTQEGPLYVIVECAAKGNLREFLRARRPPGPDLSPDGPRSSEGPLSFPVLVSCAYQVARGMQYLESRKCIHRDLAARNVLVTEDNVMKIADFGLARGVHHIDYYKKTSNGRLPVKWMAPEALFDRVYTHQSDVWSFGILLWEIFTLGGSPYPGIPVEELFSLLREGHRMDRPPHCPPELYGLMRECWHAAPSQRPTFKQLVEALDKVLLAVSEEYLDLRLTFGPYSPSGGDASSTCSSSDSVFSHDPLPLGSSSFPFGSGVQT

Chain of FGFR1 (h) (P11362 22-822): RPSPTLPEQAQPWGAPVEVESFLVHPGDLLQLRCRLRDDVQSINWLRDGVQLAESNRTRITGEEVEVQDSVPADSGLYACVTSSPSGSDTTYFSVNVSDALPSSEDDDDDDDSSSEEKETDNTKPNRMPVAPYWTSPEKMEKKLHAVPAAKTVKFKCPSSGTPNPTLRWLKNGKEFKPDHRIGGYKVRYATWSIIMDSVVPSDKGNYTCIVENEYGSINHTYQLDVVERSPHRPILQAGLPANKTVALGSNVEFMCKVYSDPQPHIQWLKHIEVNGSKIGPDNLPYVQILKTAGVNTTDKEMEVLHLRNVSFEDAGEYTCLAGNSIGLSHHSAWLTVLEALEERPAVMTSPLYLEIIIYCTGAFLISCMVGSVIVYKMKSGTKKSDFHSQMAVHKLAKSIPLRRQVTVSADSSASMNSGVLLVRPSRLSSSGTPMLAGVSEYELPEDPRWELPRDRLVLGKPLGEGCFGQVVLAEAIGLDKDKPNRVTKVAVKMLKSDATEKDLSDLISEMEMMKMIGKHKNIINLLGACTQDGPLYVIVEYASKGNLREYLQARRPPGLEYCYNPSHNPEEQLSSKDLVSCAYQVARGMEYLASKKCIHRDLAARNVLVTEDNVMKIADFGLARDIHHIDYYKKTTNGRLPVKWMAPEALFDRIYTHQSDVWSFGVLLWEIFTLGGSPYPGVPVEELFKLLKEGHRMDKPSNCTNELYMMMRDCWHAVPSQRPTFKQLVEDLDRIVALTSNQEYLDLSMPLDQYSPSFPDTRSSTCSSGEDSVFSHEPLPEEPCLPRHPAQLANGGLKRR

As to `COc1cc(OC)cc(N(Cc2ncc[nH]2)c2ccc3ncc(-c4ccn(C)c4)nc3n2)c1` [Compound 198], the IC50 was 0.309 nM at FGFR1 (h); 1.07 nM at FGFR2 (h); 0.646 nM on FGFR3 (h); more than 10000 nM in [2]; more than 10000 nM in test [5]. Also, the “BAF3-FGFR1 (MIN IL3) pIC50” value in test [1] was determined as 8.48. For the same compound, the “BAF3-FGFR3 (MIN IL3) pIC50” value in [3] is given as approximately 8.15. For the same compound, the “BAF3-KDR (MIN IL3) pIC50” value in test [4] was 6.68. Besides, the “BAF3-FGFR4 pIC50” value in test [6] was 8.05.

`COc1cc(OC)c(F)c(N(Cc2ncco2)c2ccc3ncc(-c4cnn(C)c4)nc3n2)c1` [Compound 177]: the IC50 on FGFR1 (h) is 1.78 nM; on FGFR2 (h), 1.62 nM; on FGFR3 (h), 1.07 nM; in test [2] it was more than 10000 nM; in [5], more than 10000 nM. Further, in test [1], the “BAF3-FGFR1 (MIN IL3) pIC50” value is 7.22. Also, the “BAF3-FGFR3 (MIN IL3) pIC50” value in test [3] is recorded as 7.10. For the same compound, the “BAF3-KDR (MIN IL3) pIC50” value in [4] was determined as 5.67. Moreover, in [6], the “BAF3-FGFR4 pIC50” value is listed as 6.79.

With `COc1ccc(Cl)c(N(CC2CCC(=O)N2)c2ccc3ncc(-c4cnn(C)c4)nc3n2)c1Cl` (stereo not drawn) [Compound 93], the IC50 on FGFR1 (h) is 66.1 nM; on FGFR2 (h), 60.3 nM; at FGFR3 (h) it was 77.6 nM; in [2], more than 10000 nM; in test [5], more than 10000 nM. Besides, in test [1], the “BAF3-FGFR1 (MIN IL3) pIC50” value was 5.59. Besides, the “BAF3-FGFR3 (MIN IL3) pIC50” value in test [3] is listed as approximately 5.59. In addition, the “BAF3-KDR (MIN IL3) pIC50” value in test [4] was less than 5. Besides, the “BAF3-FGFR4 pIC50” value in test [6] was determined as 5.02.

In the case of `COc1cc(OC)c(F)c(N(CC2CCC(=O)N2C)c2ccc3ncc(-c4cnn(C)c4)nc3n2)c1` (stereo not drawn) [Compound 159], the IC50 on FGFR1 (h) was 8.51 nM; at FGFR2 (h) it was 6.61 nM; on FGFR3 (h) it was 5.89 nM; in [2] it was more than 10000 nM; in test [5], more than 10000 nM. Also, the “BAF3-FGFR1 (MIN IL3) pIC50” value in [1] is listed as 6.65. In addition, the “BAF3-FGFR3 (MIN IL3) pIC50” value in test [3] is 6.30. The “BAF3-KDR (MIN IL3) pIC50” value in test [4] came out at 5.17. Further, in test [6], the “BAF3-FGFR4 pIC50” value worked out at 6.20.

`COc1cc(OC)cc(N(CC2CCCOC2)c2ccc3ncc(-c4cnn(C)c4)nc3n2)c1` (stereo not drawn) [Compound 166]: the IC50 was 5.62 nM on FGFR1 (h); 3.16 nM at FGFR2 (h); 2.63 nM at FGFR3 (h); more than 10000 nM in test [2]; more than 10000 nM in test [5]. Besides, the “BAF3-FGFR1 (MIN IL3) pIC50” value in test [1] is 6.72. Besides, the “BAF3-FGFR3 (MIN IL3) pIC50” value in test [3] amounted to 6.65. For the same compound, the “BAF3-KDR (MIN IL3) pIC50” value in test [4] was 5.07. Further, the “BAF3-FGFR4 pIC50” value in test [6] stood at 6.24.

`COc1cc(OC)cc(N(Cc2nncn2CCO)c2ccc3ncc(-c4cnn(C)c4)nc3n2)c1` [Compound 204]: the IC50 at FGFR1 (h) was 11.2 nM; on FGFR2 (h), 11 nM; at FGFR3 (h), 15.1 nM; in test [2], more than 10000 nM; in test [5] it was more than 10000 nM. The “BAF3-FGFR1 (MIN IL3) pIC50” value in test [1] was determined as 6.15. The “BAF3-FGFR3 (MIN IL3) pIC50” value in test [3] was 6.09. In test [4], the “BAF3-KDR (MIN IL3) pIC50” value is given as less than 5. Besides, the “BAF3-FGFR4 pIC50” value in test [6] is given as 5.49.

As to `COc1cc(/N=c2\ccc3ncc(-c4cnn(C)c4)nc3n2Cc2cnn(C)c2)c(F)c(OC)c1` [Compound 196], the IC50 at FGFR1 (h) is 0.407 nM; at FGFR2 (h) it was 2.14 nM; on FGFR3 (h), 0.912 nM; in test [2], more than 10000 nM; in test [5], more than 10000 nM. Also, in [1], the “BAF3-FGFR1 (MIN IL3) pIC50” value is 8.95. Also, the “BAF3-FGFR3 (MIN IL3) pIC50” value in [3] is listed as approximately 8.66. The “BAF3-KDR (MIN IL3) pIC50” value in test [4] was determined as 7.41. Also, the “BAF3-FGFR4 pIC50” value in test [6] is recorded as approximately 8.62.

As to `COc1cc(OC)c(F)c(N(CC(C)(C)O)c2ccc3ncc(-c4cnn(CC(C)(C)O)c4)nc3n2)c1` (single isomer, unassigned) [Compound 208], the IC50 is 3.63 nM on FGFR1 (h); 5.25 nM on FGFR2 (h); 3.72 nM on FGFR3 (h); more than 10000 nM in test [2]; more than 10000 nM in [5]. For the same compound, in test [1], the “BAF3-FGFR1 (MIN IL3) pIC50” value was found to be 6.84. The “BAF3-FGFR3 (MIN IL3) pIC50” value in test [3] is reported as approximately 7.15. Besides, the “BAF3-KDR (MIN IL3) pIC50” value in test [4] is 5.57. For the same compound, in test [6], the “BAF3-FGFR4 pIC50” value is listed as 6.16.
